# Data published in patent US20250163038A1, “CBL-B MODULATORS AND USES THEREOF” (Nimbus Clio, Inc., priority 2021, published 2025).
# Like-named read-outs stand apart in the source and are kept apart here.
# Experiments:
# [1] = test system: Jurkat (clone E6-1) cells with NFAT luciferase reporter; test: Jurkat reporter assay (NFAT Luciferase); assay type: cell-based; details: Homo sapiens
# [2] = biological target: T1, Recombinant human c-Cbl (aa 47-435) (Homo sapiens, UniProt P22681); test: c-Cbl Biochemical Assay (TR-FRET); details: hc-Cbl Biochemical Assay (TR-FRET); read-out: TR-FRET hcCbl IC50
# T1 sequence (P22681 47-435): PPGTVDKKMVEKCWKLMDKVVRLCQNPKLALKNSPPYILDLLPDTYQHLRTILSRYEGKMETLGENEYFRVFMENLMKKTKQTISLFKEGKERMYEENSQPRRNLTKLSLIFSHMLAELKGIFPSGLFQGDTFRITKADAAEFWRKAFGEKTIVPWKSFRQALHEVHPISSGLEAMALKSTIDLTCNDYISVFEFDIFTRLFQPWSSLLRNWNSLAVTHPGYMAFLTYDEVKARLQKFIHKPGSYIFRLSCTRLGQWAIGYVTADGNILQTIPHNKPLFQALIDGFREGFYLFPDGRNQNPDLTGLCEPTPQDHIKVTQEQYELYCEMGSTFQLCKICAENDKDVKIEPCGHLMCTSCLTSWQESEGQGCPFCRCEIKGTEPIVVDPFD
# [3] = biological target: Recombinant human Cbl-b (aa 36-427) (Homo sapiens, UniProt Q13191); test: Cbl-b Biochemical Assay (TR-FRET); details: read-out: TR-FRET hCbl-b IC50
# [4] = Jurkat NFAT luciferase reporter cells, anti-CD3 stimulation, 6 hr, read-out: Jurkat NFAT EC50
# Sequence of Recombinant human Cbl-b (aa 36-427) (Q13191 36-427): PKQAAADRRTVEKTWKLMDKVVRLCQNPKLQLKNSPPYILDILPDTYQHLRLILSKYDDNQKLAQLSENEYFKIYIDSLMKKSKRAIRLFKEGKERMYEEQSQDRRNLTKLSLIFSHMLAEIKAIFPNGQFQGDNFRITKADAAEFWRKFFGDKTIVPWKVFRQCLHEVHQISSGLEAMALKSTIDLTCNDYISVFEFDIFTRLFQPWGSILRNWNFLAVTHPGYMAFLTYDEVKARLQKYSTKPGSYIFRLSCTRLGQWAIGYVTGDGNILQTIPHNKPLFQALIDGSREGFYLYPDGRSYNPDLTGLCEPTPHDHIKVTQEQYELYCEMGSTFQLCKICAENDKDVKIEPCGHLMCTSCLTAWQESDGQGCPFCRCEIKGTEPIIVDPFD
SMILES,"EC50 [1, 4]",IC50 [2],IC50 [3],"EC50 ([1]; Jurkat, 6 h, read-out: Jurkat NFAT EC50 (μM))"
"COCCNCc1cc(C(F)(F)F)c2oc(-c3cccc([C@]4(c5nncn5C)C[C@@H](C)C4)c3)nc2c1 [ADN-1, (2-Methoxyethyl)[(2-{3-[(1r,3s)-3-methyl-1-(4-methyl-1,2,4-triazol-3-yl)cyclobutyl]phenyl}-7-(trifluoromethyl)-1,3-benzoxazol-5-yl)methyl]amine]",0.2 to 1 µM,200 to 1000 nM,< 200 nM,
"Cn1cnnc1-c1cc(F)ccc1-c1cc(-c2nc3cc(CN[C@@H]4CCC[C@@H]4O)cc(F)c3o2)cc(C2CC2)c1 [JM-4, (1S,2R)-2-(((2-(5-Cyclopropyl-4′-fluoro-2′-(4-methyl-4H-1,2,4-triazol-3-yl)-[1,1′-biphenyl]-3-yl)-7-fluorobenzo[d]oxazol-5-yl)methyl)amino)cyclopentan-1-ol]",< 0.2 µM,< 200 nM,< 200 nM,
"Cn1cnnc1-c1cc(F)ccc1-c1cccc(-c2nc3cc(CN[C@@H]4CCC[C@@H]4O)cc(C#N)c3o2)c1 [HH-3, 2-(4′-Fluoro-2′-(4-methyl-4H-1,2,4-triazol-3-yl)-[1,1′-biphenyl]-3-yl)-5-((((1R,2S)-2-hydroxycyclopentyl)amino)methyl)benzo[d]oxazole-7-carbonitrile]",,< 200 nM,< 200 nM,< 0.2 µM
"C[C@H]1CCCN(Cc2ccc3oc(-c4cc(-c5ccc(C#N)cc5-c5nncn5C)cc(C5CC5)n4)nc3c2)C1 [AGG-2, 4-[2-Cyclopropyl-6-(5-{[(3S)-3-methylpiperidin-1-yl]methyl}-1,3-benzoxazol-2-yl)pyridin-4-yl]-3-(4-methyl-1,2,4-triazol-3-yl)benzonitrile]",0.2 to 1 µM,200 to 1000 nM,< 200 nM,
"Cn1cnnc1-c1cc(C#N)ccc1-c1cc(-c2nc3cc(CNCC4CCC4)ccc3o2)nc(C2CC2)c1 [AEO-1, 4-[2-(5-{[(Cyclobutylmethyl)amino]methyl}-1,3-benzoxazol-2-yl)-6-cyclopropylpyridin-4-yl]-3-(4-methyl-1,2,4-triazol-3-yl)benzonitrile]",< 0.2 µM,< 200 nM,< 200 nM,
"COC1(CNCc2cc(C(F)(F)F)c3oc(-c4cccc(-c5ccc(F)cc5-c5nncn5C)c4)nc3c2)CCC1 [DE-2, 1-(2-(4′-Fluoro-2′-(4-methyl-4H-1,2,4-triazol-3-yl)-[1,1′-biphenyl]-3-yl)-7-(trifluoromethyl)benzo[d]oxazol-5-yl)-N-((1-methoxycyclobutyl)methyl)methanamine]",0.2 to 1 µM,< 200 nM,< 200 nM,
"COc1cc(CN[C@@H]2CCC[C@@H]2OC)cc2nc(-c3cccc(-c4ccc(F)cc4-c4nncn4C)c3)oc12 [FQ-1, (1R,2S)—N-((2-(4′-Fluoro-2′-(4-methyl-4H-1,2,4-triazol-3-yl)-[1,1′-biphenyl]-3-yl)-7-methoxybenzo[d]oxazol-5-yl)methyl)-2-methoxycyclopentan-1-amine]",1 to 10 µM,200 to 1000 nM,200 to 1000 nM,
"COCCNCc1cc2nc(-c3cccc(-c4ccc(F)cc4-c4nncn4C)c3)oc2cc1F [IR-1, N-((6-Fluoro-2-(4′-fluoro-2′-(4-methyl-4H-1,2,4-triazol-3-yl)-[1,1′-biphenyl]-3-yl)benzo[d]oxazol-5-yl)methyl)-2-methoxyethan-1-amine]",0.2 to 1 µM,200 to 1000 nM,< 200 nM,
"Cn1cnnc1-c1cc(F)ccc1-c1cccc(-c2nc3cc(CNCC(C)(C)O)cc(F)c3o2)c1 [JN-1, 1-(((7-Fluoro-2-(4′-fluoro-2′-(4-methyl-4H-1,2,4-triazol-3-yl)-[1,1′-biphenyl]-3-yl)benzo[d]oxazol-5-yl)methyl)amino)-2-methylpropan-2-ol]",< 0.2 µM,< 200 nM,< 200 nM,
"CN(Cc1cc(C(F)(F)F)c2oc(-c3cc(-c4ccc(F)cc4-c4nncn4C)cc(C4CC4)n3)nc2c1)[C@@H]1CCC[C@@H]1O [AEW-1, (1S, 2R)-2-{1[(2-{6-Cyclopropyl-4-[4-fluoro-2-(4-methyl-1,2,4-triazol-3-yl)phenyl]pyridin-2-yl}-7-(trifluoromethyl)-1,3-benzoxazol-5-yl)methyl](methyl)amino}cyclopentan-1-ol]",< 0.2 µM,< 200 nM,< 200 nM,
"Cn1cnnc1-c1cc(F)ccc1-c1cc(C(=O)Nc2cc(CN3CCC4(CC4)C3)cc(C(F)(F)F)c2N)nc(C2CC2)c1 [ABA-1, N-(5-((5-Azaspiro[2.4]heptan-5-yl)methyl)-2-amino-3-(trifluoromethyl)phenyl)-6-cyclopropyl-4-(4-fluoro-2-(4-methyl-4H-1,2,4-triazol-3-yl)phenyl)picolinamide]",0.2 to 1 µM,1000 to 10000 nM,< 200 nM,
"CC(NCC1(O)CCC1)c1cc(F)c2oc(-c3cc(-c4ccc(F)cc4-c4nncn4C)cc(C4CC4)n3)nc2c1 (stereo in doubt) [AFR-1, 1-({[(1R)-1-(2-{6-Cyclopropyl-4-[4-fluoro-2-(4-methyl-1,2,4-triazol-3-yl)phenyl]pyridin-2-yl}-7-fluoro-1,3-benzoxazol-5-yl)ethyl]amino}methyl)cyclobutan-1-ol]",< 0.2 µM,< 200 nM,< 200 nM,
"Cn1cnnc1-c1cc(F)ccc1-c1cccc(-c2nc3cc(CN4CC[C@H](O)C4)cc(C(F)(F)F)c3o2)c1 [AD-2, (S)-1-((2-(4′-Fluoro-2′-(4-methyl-4H-1,2,4-triazol-3-yl)-[1,1′-biphenyl]-3-yl)-7-(trifluoromethyl)benzo[d]oxazol-5-yl)methyl)pyrrolidin-3-ol]",1 to 10 µM,1000 to 10000 nM,< 200 nM,
"Cn1cnnc1-c1cc(F)ccc1-c1cccc(-c2nc3cc(C(NCC4CCC4)C(F)(F)F)cc(C4CC4)c3o2)c1 (racemic) [IO-4, rac-N-(Cyclobutylmethyl)-1-(7-cyclopropyl-2-(4′-fluoro-2′-(4-methyl-4H-1,2,4-triazol-3-yl)-[1,1′-biphenyl]-3-yl)benzo[d]oxazol-5-yl)-2,2,2-trifluoroethan-1-amine]",1 to 10 µM,1000 to 10000 nM,1000 to 10000 nM,
"COC[C@H](C)NCc1cc(F)c2oc(-c3cc(-c4ccc(F)cc4-c4nncn4C)cc(C4CC4)n3)nc2c1 [AFU-1, [(2-{6-Cyclopropyl-4-[4-fluoro-2-(4-methyl-1,2,4-triazol-3-yl)phenyl]pyridin-2-yl}-7-fluoro-1,3-benzoxazol-5-yl)methyl][(2S)-1-methoxypropan-2-yl]amine]",< 0.2 µM,< 200 nM,< 200 nM,
"CO[C@H](CO)c1cc(C(F)(F)F)c2oc(-c3cccc(-c4ccc(F)cc4-c4nncn4C)c3)nc2c1 (single isomer, unassigned) [EG-2]",1 to 10 µM,200 to 1000 nM,< 200 nM,
"Cn1cnnc1-c1cc(F)ccc1-c1cccc(-c2nc3cc(CNCCO)cc(C(F)(F)F)c3o2)c1 [AN-2, 2-(((2-(4′-Fluoro-2′-(4-methyl-4H-1,2,4-triazol-3-yl)-[1,1′-biphenyl]-3-yl)-7-(trifluoromethyl)benzo[d]oxazol-5-yl)methyl)amino)ethan-1-ol]",1 to 10 µM,1000 to 10000 nM,< 200 nM,
COCCN(Cc1cc(C(F)(F)F)c2oc(-c3cccc(-c4ccc(F)cc4-c4nncn4C)c3)nc2c1)CC(C)(C)O [EZ-3],1 to 10 µM,200 to 1000 nM,< 200 nM,
"Cn1cnnc1-c1cc(F)ccc1-c1cccc(-c2nc3cc(CNCC(=O)N4CCC4)cc(C(F)(F)F)c3o2)c1 [HE-4, 1-(Azetidin-1-yl)-2-(((2-(4′-fluoro-2′-(4-methyl-4H-1,2,4-triazol-3-yl)-[1,1′-biphenyl]-3-yl)-7-(trifluoromethyl)benzo[d]oxazol-5-yl)methyl)amino)ethan-1-one]",1 to 10 µM,< 200 nM,< 200 nM,
"Cn1cnnc1-c1cc(F)ccc1-c1cccc(-c2nc3cc(CN[C@H]4CC[C@@H]4O)cc(C(F)(F)F)c3o2)c1 (racemic) [ADF-2, (1R,2R)-2-[({2-[4′-Fluoro-2′-(4-methyl-1,2,4-triazol-3-yl)-[1,1′-biphenyl]-3-yl]-7-(trifluoromethyl)-1,3-benzoxazol-5-yl}methyl)amino]cyclobutan-1-ol]",< 0.2 µM,< 200 nM,< 200 nM,
"CO[C@H]1CCCN(Cc2cc(C(F)(F)F)c3oc(-c4cccc(-c5ccc(F)cc5-c5nncn5C)c4)nc3c2)C1 [IU-2, (S)-2-(4′-Fluoro-2′-(4-methyl-4H-1,2,4-triazol-3-yl)-[1,1′-biphenyl]-3-yl)-5-((3-methoxypiperidin-1-yl)methyl)-7-(trifluoromethyl)benzo[d]oxazole]",0.2 to 1 µM,< 200 nM,< 200 nM,
"Cc1c(F)c(CNCC2(O)CCC2)cc2nc(-c3cc(-c4ccc(F)cc4-c4nncn4C)cc(C4CC4)n3)oc12 [AHJ-1, 1-({[(2-{6-cyclopropyl-4-[4-fluoro-2-(4-methyl-1,2,4-triazol-3-yl)phenyl]pyridin-2-yl}-6-fluoro-7-methyl-1,3-benzoxazol-5-yl)methyl]amino}methyl)cyclobutan-1-ol]",< 0.2 µM,< 200 nM,< 200 nM,
